Among the test systems are A549; DLD-1; DMS-273; EKVX; HCT-15; HL-60; HOP-92; IGROV-1; M19-MEL; NCI-H226; RXF 393; SF-268; SF-539; SK-MEL-28; SNB-78; SW-620; COLO 205; SK-OV-3; NCI-H522.
What all share (test): NCI-60 cell line screen, 48 h

The values below come from ChEMBL document CHEMBL1201862, “PubChem BioAssay data set” (2004).

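Following 48 hours of exposure in 96-well plates, responses at five concentrations were used to interpolate endpoints linearly. GI50 marks 50% less growth.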 Active and inactive are the calls of the source. Cut-off read from the data, not from the text of the source: active = GI50 up to about 1.1 µM and inactive = higher.

As for `C/C(CCn1[nH]c(=O)ccc1=O)=N\OCCCc1ccccc1`, the GI50 was > 100 µM (inactive) in the assay with A549; > 100 µM (inactive) with DLD-1; > 100 µM (inactive) with DMS-273; > 100 µM (inactive) in the assay with EKVX; more than 100 µM in the assay on HCT-15; > 100 µM (inactive) in the assay with HL-60. Moreover, the GI50 was 88.5 µM (inactive) in the assay on HOP-92; > 100 µM (inactive) in the assay on IGROV-1; > 100 µM (inactive) in the assay on M19-MEL; > 100 µM (inactive) with NCI-H226; > 100 µM (inactive) in the assay with RXF 393; > 100 µM (inactive) in the assay on SF-268. The GI50 with SF-539, in the assay on SK-MEL-28, with SNB-78 and with SW-620 was > 100 µM (inactive) in each case.

With `CCOC(=O)C1=C(C)C2C3C(=O)OC(=O)C3C1(C)C1C(=O)OC(=O)C21` (stereo unspecified), the GI50 in the assay with A549 is > 100 µM (inactive); in the assay with COLO 205, > 100 µM (inactive); in the assay with DLD-1, > 100 µM (inactive); with DMS-273 it was > 100 µM (inactive); in the assay on EKVX, > 100 µM (inactive); with HCT-15, more than 100 µM. In addition, the GI50 in the assay on HL-60, with HOP-92, with IGROV-1, in the assay on M19-MEL, in the assay with NCI-H226 and in the assay on RXF 393 was > 100 µM (inactive) each time. Further, the GI50 in the assay on SF-268, in the assay on SF-539, in the assay on SK-MEL-28, in the assay with SK-OV-3, with SNB-78 and in the assay with SW-620 was > 100 µM (inactive) in each case.

With `Cc1ccc(NC(=O)CCc2nnc(S)[nH]2)cc1`, the GI50 in the assay with A549 was > 100 µM (inactive); in the assay on COLO 205, > 100 µM (inactive); in the assay on DLD-1, > 100 µM (inactive); with DMS-273, > 100 µM (inactive); in the assay on EKVX, > 100 µM (inactive); in the assay with HCT-15, 76 µM. Also, the GI50 in the assay on HL-60, in the assay on HOP-92, with IGROV-1, in the assay on M19-MEL, with NCI-H226 and in the assay on NCI-H522 was > 100 µM (inactive) in each case. Also, the GI50 in the assay on SF-268, with SF-539, with SK-MEL-28, in the assay with SK-OV-3, in the assay with SNB-78 and with SW-620 was > 100 µM (inactive) in each case.

Turning to `CC1OC(=O)N2CCC=CC12` (stereo unspecified), the GI50 with A549 is > 100 µM (inactive); with COLO 205, > 100 µM (inactive); in the assay on DLD-1, > 100 µM (inactive); with DMS-273, > 100 µM (inactive); with EKVX it was > 100 µM (inactive); with HCT-15 it was more than 100 µM. Also, the GI50 with IGROV-1, with M19-MEL, with NCI-H226, with NCI-H522, in the assay with RXF 393 and in the assay on SF-268 was > 100 µM (inactive) throughout. In addition, the GI50 in the assay with SF-539, in the assay on SK-MEL-28, with SK-OV-3, in the assay on SNB-78 and in the assay on SW-620 was > 100 µM (inactive) throughout.

For `Cc1cc(O)c(C=O)c(C)c1CCC1(C)C=Cc2cc(O)ccc2O1` (stereo unspecified), the GI50 is 35.9 µM (inactive) with A549; 15.6 µM (inactive) in the assay on COLO 205; 19.6 µM (inactive) in the assay on DLD-1; 21.5 µM (inactive) with DMS-273; 29.5 µM (inactive) in the assay on EKVX; 22.9 µM with HCT-15. For the same compound, the GI50 in the assay on HL-60 is 22.8 µM (inactive); with HOP-92, 22.2 µM (inactive); in the assay with IGROV-1, 26.2 µM (inactive); in the assay on M19-MEL, 27.7 µM (inactive); in the assay with NCI-H226, 26.5 µM (inactive); with NCI-H522, 14.8 µM (inactive). Besides, the GI50 in the assay with SF-268 is 30.3 µM (inactive); in the assay with SF-539, 18.3 µM (inactive); in the assay with SK-MEL-28, 22.7 µM (inactive); in the assay with SK-OV-3, 23.9 µM (inactive); in the assay with SNB-78, 21.2 µM (inactive); in the assay on SW-620 it was 20.9 µM (inactive).

For the compound `COC(=O)C1C2C=CC(C2)N1[C@@H](C)c1ccccc1` (stereo partly specified), the GI50 with A549 is > 100 µM (inactive); with COLO 205 it was > 100 µM (inactive); in the assay with DLD-1, > 100 µM (inactive); with DMS-273, > 100 µM (inactive); in the assay with EKVX, > 100 µM (inactive); in the assay with HCT-15, more than 100 µM. Further, the GI50 in the assay on HL-60, in the assay with HOP-92, with IGROV-1, in the assay with M19-MEL, in the assay on NCI-H522 and in the assay on SF-268 was > 100 µM (inactive) throughout. In addition, the GI50 in the assay with SF-539, with SK-MEL-28, in the assay with SK-OV-3, with SNB-78 and in the assay with SW-620 was > 100 µM (inactive) throughout.

For the compound `OC1=CN=C(C2CC2)Oc2ccccc21`, the GI50 was > 100 µM (inactive) in the assay on A549; > 100 µM (inactive) in the assay on COLO 205; > 100 µM (inactive) in the assay on DLD-1; > 100 µM (inactive) in the assay with DMS-273; > 100 µM (inactive) in the assay with EKVX; more than 100 µM with HCT-15. Moreover, the GI50 was > 100 µM (inactive) in the assay with HL-60; 96.2 µM (inactive) in the assay with HOP-92; > 100 µM (inactive) in the assay on IGROV-1; > 100 µM (inactive) in the assay with M19-MEL; 15.5 µM (inactive) with NCI-H226; > 100 µM (inactive) in the assay with RXF 393. In addition, the GI50 in the assay with SF-268, in the assay with SF-539, in the assay with SK-MEL-28, in the assay on SK-OV-3, with SNB-78 and with SW-620 was > 100 µM (inactive) each time.

In the case of `CC(=O)N/C(=C\c1ccc(/C=C(\NC(C)=O)c2nc3cc(Cl)ccc3[nH]2)cc1)c1nc2ccccc2[nH]1`, the GI50 in the assay with A549 was > 100 µM (inactive); with COLO 205, > 100 µM (inactive); in the assay with DLD-1 it was > 100 µM (inactive); in the assay on DMS-273, > 100 µM (inactive); in the assay with EKVX it was > 100 µM (inactive); in the assay with HCT-15 it was more than 100 µM. Moreover, the GI50 with HOP-92, with IGROV-1, in the assay on M19-MEL, in the assay on NCI-H226, in the assay with NCI-H522 and with SF-268 was > 100 µM (inactive) each time. The GI50 in the assay on SF-539, with SK-MEL-28, with SK-OV-3, in the assay with SNB-78 and in the assay on SW-620 was > 100 µM (inactive) in each case.

In the case of `CCOC(=O)/C=C1\Nc2ccccc2-n2nnnc21`, the GI50 is > 100 µM (inactive) in the assay on A549; > 100 µM (inactive) with COLO 205; > 100 µM (inactive) with DLD-1; 30.3 µM (inactive) in the assay with DMS-273; > 100 µM (inactive) in the assay on EKVX; more than 100 µM with HCT-15. For the same compound, the GI50 with HL-60, in the assay with HOP-92, with IGROV-1, in the assay on M19-MEL, with NCI-H226 and in the assay on RXF 393 was > 100 µM (inactive) in each case. Besides, the GI50 with SF-268 is > 100 µM (inactive); with SF-539 it was > 100 µM (inactive); in the assay with SK-MEL-28, > 100 µM (inactive); in the assay with SK-OV-3, > 100 µM (inactive); in the assay with SNB-78, > 100 µM (inactive); in the assay on SW-620, 23.7 µM (inactive).

In the case of `CCCCCCCCCCCCCCCCNc1cccc2ccccc12`, the GI50 in the assay with A549 was > 100 µM (inactive); in the assay with COLO 205 it was > 100 µM (inactive); with DLD-1, > 100 µM (inactive); with DMS-273, > 100 µM (inactive); with EKVX it was > 100 µM (inactive); in the assay on HCT-15, more than 100 µM. Further, the GI50 in the assay on HL-60, in the assay on IGROV-1, with M19-MEL, in the assay on NCI-H226, in the assay on NCI-H522 and in the assay on RXF 393 was > 100 µM (inactive) throughout. Further, the GI50 in the assay with SF-268, in the assay on SF-539, with SK-MEL-28, in the assay with SK-OV-3, in the assay with SNB-78 and with SW-620 was > 100 µM (inactive) each time.

`CCO/N=C(/N)c1ncn(Cc2ccccc2)c1NCC(OCC)OCC`: the GI50 in the assay with A549 was > 100 µM (inactive); in the assay on COLO 205 it was > 100 µM (inactive); in the assay on DLD-1, > 100 µM (inactive); in the assay with DMS-273 it was > 100 µM (inactive); with EKVX, > 100 µM (inactive); with HCT-15, more than 100 µM. The GI50 in the assay on IGROV-1 was > 100 µM (inactive); in the assay with M19-MEL it was > 100 µM (inactive); in the assay on NCI-H226, > 100 µM (inactive); with NCI-H522, > 100 µM (inactive); in the assay on RXF 393 it was 29.2 µM (inactive); in the assay on SF-268, > 100 µM (inactive). For the same compound, the GI50 in the assay with SF-539, in the assay on SK-OV-3, in the assay with SNB-78 and in the assay on SW-620 was > 100 µM (inactive) throughout.
